Experimental data: ChEMBL document CHEMBL3217709, “SAR mining and its application to the design of TRPA1 antagonists” (Medchemcomm, 2012)

Legend:
Adenosine receptor A2b = target: T1, Adenosine receptor A2b (Homo sapiens, UniProt P29275); experiment: Antagonist activity at adenosine A2B receptor (unknown origin)
T1 sequence (P29275 whole entry): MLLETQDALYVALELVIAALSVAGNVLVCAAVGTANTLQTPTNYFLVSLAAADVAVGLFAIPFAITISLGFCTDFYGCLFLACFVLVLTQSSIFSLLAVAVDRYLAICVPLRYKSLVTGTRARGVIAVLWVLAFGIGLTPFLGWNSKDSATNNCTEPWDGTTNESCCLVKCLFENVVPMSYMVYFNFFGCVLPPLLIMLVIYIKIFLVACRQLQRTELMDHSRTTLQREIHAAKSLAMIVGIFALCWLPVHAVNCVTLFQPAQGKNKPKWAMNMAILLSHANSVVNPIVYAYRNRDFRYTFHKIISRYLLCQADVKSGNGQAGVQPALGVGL

[1] = target: 5-hydroxytryptamine receptor 4 (Homo sapiens, UniProt Q13639); experiment: Antagonist activity at […] receptor (unknown origin)
5-hydroxytryptamine receptor 4, sequence (Q13639 whole entry): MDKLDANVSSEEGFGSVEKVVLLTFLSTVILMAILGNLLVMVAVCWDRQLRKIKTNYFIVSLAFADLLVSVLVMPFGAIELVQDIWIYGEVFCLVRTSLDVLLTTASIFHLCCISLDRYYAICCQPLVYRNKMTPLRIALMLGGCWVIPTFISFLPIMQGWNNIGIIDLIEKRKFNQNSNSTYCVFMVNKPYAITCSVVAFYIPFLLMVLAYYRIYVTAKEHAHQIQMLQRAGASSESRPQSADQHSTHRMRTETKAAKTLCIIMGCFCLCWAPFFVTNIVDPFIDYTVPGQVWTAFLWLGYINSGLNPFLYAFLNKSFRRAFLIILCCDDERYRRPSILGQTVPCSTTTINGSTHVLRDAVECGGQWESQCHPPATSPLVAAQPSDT

[2] = target: Transient receptor potential cation channel subfamily A member 1 (Homo sapiens, UniProt O75762); experiment: Antagonist activity at TRPA1 (unknown origin)
Transient receptor potential cation channel subfamily A member 1, sequence (O75762 whole entry): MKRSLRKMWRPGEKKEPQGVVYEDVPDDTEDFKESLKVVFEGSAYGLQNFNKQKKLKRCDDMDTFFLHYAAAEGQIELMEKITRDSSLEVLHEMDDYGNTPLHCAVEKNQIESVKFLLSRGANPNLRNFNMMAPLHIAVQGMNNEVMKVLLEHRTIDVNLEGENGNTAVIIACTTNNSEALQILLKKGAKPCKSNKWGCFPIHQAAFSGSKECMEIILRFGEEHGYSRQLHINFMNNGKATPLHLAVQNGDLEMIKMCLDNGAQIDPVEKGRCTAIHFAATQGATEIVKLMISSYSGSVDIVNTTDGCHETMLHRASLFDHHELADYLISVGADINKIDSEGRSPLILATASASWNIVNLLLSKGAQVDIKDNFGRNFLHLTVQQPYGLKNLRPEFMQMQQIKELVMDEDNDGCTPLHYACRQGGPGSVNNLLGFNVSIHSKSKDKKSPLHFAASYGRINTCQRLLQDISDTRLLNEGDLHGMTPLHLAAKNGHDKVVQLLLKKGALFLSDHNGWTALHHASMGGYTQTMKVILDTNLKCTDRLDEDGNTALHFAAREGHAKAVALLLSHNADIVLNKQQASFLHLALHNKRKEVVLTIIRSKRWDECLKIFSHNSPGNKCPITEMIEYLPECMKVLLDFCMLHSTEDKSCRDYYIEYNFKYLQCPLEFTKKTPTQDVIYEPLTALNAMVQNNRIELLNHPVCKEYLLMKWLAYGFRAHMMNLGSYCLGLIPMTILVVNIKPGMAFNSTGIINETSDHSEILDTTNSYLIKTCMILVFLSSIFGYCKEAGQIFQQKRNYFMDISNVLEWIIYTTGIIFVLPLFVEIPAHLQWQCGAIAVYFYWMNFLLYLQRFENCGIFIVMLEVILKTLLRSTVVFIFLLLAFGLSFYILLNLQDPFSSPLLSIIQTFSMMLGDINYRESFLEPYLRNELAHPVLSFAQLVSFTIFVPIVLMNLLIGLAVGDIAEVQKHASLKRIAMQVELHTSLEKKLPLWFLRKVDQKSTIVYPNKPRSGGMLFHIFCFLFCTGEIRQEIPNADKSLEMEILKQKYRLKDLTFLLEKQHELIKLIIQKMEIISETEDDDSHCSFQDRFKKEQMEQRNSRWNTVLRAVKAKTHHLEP

Coagulation factor X = Coagulation factor X (Homo sapiens, UniProt P00742); experiment: Inhibition of factor-10a (unknown origin)
Coagulation factor X, sequence (P00742 41-179 limits assumed): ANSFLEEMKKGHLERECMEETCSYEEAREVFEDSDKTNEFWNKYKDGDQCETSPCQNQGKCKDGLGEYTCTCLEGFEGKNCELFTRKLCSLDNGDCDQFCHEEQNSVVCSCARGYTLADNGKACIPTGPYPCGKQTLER
Coagulation factor X, sequence (P00742 235-488 limits assumed): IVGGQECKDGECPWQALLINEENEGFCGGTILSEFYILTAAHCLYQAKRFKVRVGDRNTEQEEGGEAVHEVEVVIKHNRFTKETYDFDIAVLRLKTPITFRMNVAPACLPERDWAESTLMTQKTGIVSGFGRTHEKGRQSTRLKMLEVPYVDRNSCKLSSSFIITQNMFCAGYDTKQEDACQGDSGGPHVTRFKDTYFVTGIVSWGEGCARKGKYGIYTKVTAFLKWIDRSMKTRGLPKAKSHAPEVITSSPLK

IC50 [1] [nM]	IC50 [2] [nM]	Structure (SMILES)	other results
–	1570	Cc1c(=O)n(Cc2ccccc2)c(=O)n2cc(C(=O)NCc3cccnc3)sc12	–
–	1460	Cc1c(=O)n(Cc2ccccc2)c(=O)n2cc(C(=O)NCc3ccc4nsnc4c3)sc12	–
–	1880	Cc1c(=O)n(Cc2ccccc2)c(=O)n2cc(C(=O)NCc3ccccc3)sc12	–
–	200	Cc1c(=O)n(Cc2ccccc2)c(=O)n2cc(C(=O)N3CCC(Oc4ccccc4F)CC3)sc12	–
–	680	Cc1c(=O)n(Cc2ccccc2)c(=O)n2cc(C(=O)NCc3ccc4[nH]ccc4c3)sc12	–
–	1740	COc1cc(CNC(=O)c2cn3c(=O)n(Cc4ccccc4)c(=O)c(C)c3s2)ccn1	–
–	2230	Cc1c(=O)n(Cc2ccccc2)c(=O)n2cc(C(=O)NCc3ccc(F)cc3)sc12	–
–	200	Cc1c(=O)n(Cc2ccccc2)c(=O)n2cc(C(=O)N3CCC(Oc4cccc(Cl)c4)CC3)sc12	–
–	1370	Cc1ccc(CNC(=O)c2cn3c(=O)n(Cc4ccccc4)c(=O)c(C)c3s2)cc1	–
–	100	Cc1c(=O)n(Cc2ccccc2)c(=O)n2cc(C(=O)N3CC[C@@H](Oc4ccccc4C(F)(F)F)C3)sc12	–
–	2230	Cc1c(=O)n(Cc2ccccc2)c(=O)n2cc(C(=O)NCc3ccc(Cl)cc3)sc12	–
–	400	Cc1c(=O)n(Cc2ccccc2)c(=O)n2cc(C(=O)N3CCC(c4ccccc4F)CC3)sc12	–
–	1170	Cc1c(=O)n(Cc2ccccc2)c(=O)n2cc(C(=O)NCc3ccncc3)sc12	–
–	3490	Cc1c(=O)n(Cc2ccccc2)c(=O)n2cc(C(=O)NCc3ccccn3)sc12	–

The next lines start with the compound.

Structure (SMILES)	IC50 [1] [nM]	IC50 [2] [nM]	other results
COc1cc(N)c(Cl)cc1C(=O)OCCN1CCN(c2ccccc2F)CC1	17	–	IC50 (Adenosine receptor A2b): 645 nM
Cc1cc(C(=O)Nc2ccc(-c3ccccc3S(C)(=O)=O)cc2)n(-c2cccc(C(=N)N)c2)n1	–	–	IC50 (Coagulation factor X): 0.008 nM
COc1ccc(N2CCN(CCOC(=O)c3cc(Cl)c(N)cc3OC)CC2)cc1	18	–	IC50 (Adenosine receptor A2b): 250 nM
COc1cc(N)c(Cl)cc1C(=O)OCCN1CCN(c2ccccc2OC)CC1	64	–	IC50 (Adenosine receptor A2b): 127 nM
COc1cc(N)c(Cl)cc1C(=O)OCCN1CCN(c2cccc(Cl)c2)CC1	162	–	IC50 (Adenosine receptor A2b): 2080 nM
COc1cc(N)c(Cl)cc1C(=O)OCCN1CCN(c2ccccc2-c2cnccn2)CC1	1.4	–	–
Cc1cc(C(=O)Nc2ccc(-c3ccccc3C(F)(F)F)cc2)n(-c2cccc(C(=N)N)c2)n1	–	–	IC50 (Coagulation factor X): 0.04 nM
COc1cccc(N2CCN(CCOC(=O)c3cc(Cl)c(N)cc3OC)CC2)c1	3	–	IC50 (Adenosine receptor A2b): 50 nM
COc1cc(N)c(Cl)cc1C(=O)OCCN1CCN(c2ccc(Cl)cc2)CC1	715	–	IC50 (Adenosine receptor A2b): 3660 nM
Cc1c(=O)n(Cc2ccccc2)c(=O)n2cc(C(=O)N3CC[C@H](Oc4ccccc4C(F)(F)F)C3)sc12	–	150	–
COc1cc(N)c(Cl)cc1C(=O)OCCN1CCN(c2ccccc2Cl)CC1	296	–	IC50 (Adenosine receptor A2b): 5830 nM
